Converted amounts (≈) assume the structure as drawn.
Tests used:
[1] = system: host expressing Citrobacter freundii ampC gene CMY2; experiment: MIC conferred by ampC gene CMY2 cloned into common vector; assay type: cell-based
Source text: (§1) The plasmid-borne ampC genes shown in Table 1 (below) have been cloned into a common vector to ensure that all genes are expressed at the same level. […] That is completely expected because those genes were isolated from clinical samples and identified on the basis of conferring resistance to clinical drugs. ampC genes from two strains of Citrobacter freundii that were isolated in the 1920's, in the pre-antibiotic era, were also cloned into the same vector.

[2] = system: host expressing Citrobacter freundii ampC gene CMY3b; experiment: MIC conferred by ampC gene CMY3b cloned into common vector; assay type: cell-based
Source text: as §1

[3] = system: host expressing Citrobacter freundii ampC gene LAT1; experiment: MIC conferred by ampC gene LAT1 cloned into common vector; assay type: cell-based
Source text: as §1

[4] = system: host expressing Citrobacter freundii ampC gene LAT2; experiment: MIC conferred by ampC gene LAT2 cloned into common vector; assay type: cell-based
Source text: as §1

[5] = system: host expressing Citrobacter freundii ampC gene LAT3; experiment: MIC conferred by ampC gene LAT3 cloned into common vector; assay type: cell-based
Source text: as §1

[6] = system: host expressing Citrobacter freundii ampC gene LAT4; experiment: MIC conferred by ampC gene LAT4 cloned into common vector; assay type: cell-based
Source text: as §1

[7] = system: host expressing Citrobacter freundii ampC gene Cfre6879; experiment: MIC conferred by ampC gene Cfre6879 cloned into common vector; assay type: cell-based; details: Cfre 6879, gene from organism isolated in the 1920's
Source text: as §1

[8] = system: host expressing Citrobacter freundii ampC gene Cfre8454; experiment: MIC conferred by ampC gene Cfre8454 cloned into common vector; assay type: cell-based; details: for Minimum Inhibitory Concentration (MIC): Cfre 8454, gene from organism isolated in the 1920's
Source text: as §1

[9] = system: evolved E. coli ampC gene; details: two or three laboratory-induced mutations; cited from earlier work
[10] = system: Salmonella enteritidis serovar typhimurium strain LT2; experiment: MIC, native Salmonella strain LT2; assay type: cell-based; details: for MIC: Salmonella enterica, read-out: Minimum Inhibitory Concentration; for sensitivity of the strain to the drug: native strain LT2
DH5α-E/pACSE2 = experiment: MIC, host with empty expression vector; assay type: cell-based, E. coli; details: for MIC: Escherichia coli, read-out: Minimum Inhibitory Concentration
Experimental: (§2) The putative AAC(6′) aminogylcoside N6′-acetyltransferase gene from Salmonella enteritidis serovar typhimurium strain LT2, designated AAC(6′)-Iaa, was amplified by PCR and cloned into the expression vector pACSE2 (U.S. patent application Ser. No. 09/640,882 to Hall, filed Aug. 18, 2000, which is hereby incorporated by reference in its entirety). The resulting plasmid was designated pAAC(6′)-Iaa (FIG. 2A). The sequence of the AAC(6′)-Iaa coding region was determined by automated DNA sequencing and was confirmed to be identical to the sequence obtained from the incomplete genome sequence database (FIG. 2B).

DH5α-E/pAAC(6′)-Iaa = experiment: MIC, transgenic host expressing AAC(6′)-Iaa; assay type: cell-based, E. coli; details: for MIC: Escherichia coli, read-out: Minimum Inhibitory Concentration; for resistance conferred by plasmid pAAC(6′)-Iaa: transformed into E. coli strain DH5α-E
Experimental: as §2

[11] = cited from earlier work; for Minimum Inhibitory Concentration, Clinical Resistance: Table 2, aminoglycosides; for Clin. = the MIC for clinical resistance: Table 1, β-lactams, unit assumed
No Plasmid host = experiment: MIC, host with no plasmid (Table 1); assay type: cell-based
Source text: (§3) The plasmid-borne ampC genes shown in Table 1 (below) have been cloned into a common vector to ensure that all genes are expressed at the same level.

[12] = system: plasmid-borne ampC genes CMY-2, CMY-3b, LAT-1, LAT-2, LAT-3, and LAT-4; experiment: Clinical resistance conferred by plasmid-borne ampC genes as a group; assay type: cell-based, Citrobacter freundii; details: all of CMY-2, CMY-3b, LAT-1, LAT-2, LAT-3, LAT-4
Source text: as §3

E. coli K12 ampC = details: gene cloned into a plasmid, effective promoter; cited from earlier work
[13] = S. enteritidis serovar typhimurium LT2

Compound | Minimum Inhibitory Concentration (MIC) [1] | Minimum Inhibitory Concentration (MIC) [2] | Minimum Inhibitory Concentration (MIC) [3] | Minimum Inhibitory Concentration (MIC) [4] | Minimum Inhibitory Concentration (MIC) [5] | Minimum Inhibitory Concentration (MIC) [6] | Minimum Inhibitory Concentration (MIC) [7] | Minimum Inhibitory Concentration (MIC) [8] | resistance conferred after further evolution [9] | Minimum Inhibitory Concentration (MIC) (No Plasmid host) | clinical resistance conferred [12] | Clin. = the MIC for clinical resistance [11] [mg/L] | further results
C[C@H]1[C@H](NC(=O)/C(=N\OC(C)(C)C(=O)O)c2csc(N)n2)C(=O)N1S(=O)(=O)O [Aztreonam] | 16 | 128 | 256 | 64 | 64 | 128 | 256 | 128 | confer resistance | – | – | – | –
NCC[C@H](O)C(=O)N[C@@H]1C[C@H](N)[C@@H](O[C@H]2O[C@H](CN)[C@@H](O)[C@H](O)[C@H]2O)[C@H](O)[C@H]1O[C@H]1O[C@H](CO)[C@@H](O)[C@H](N)[C@H]1O [Amikacin] | – | – | – | – | – | – | – | – | – | – | – | – | MIC [10, 13]: 4 mg/L (≈ 6.83 µM); sensitivity of the strain to the drug [10]: sensitive; MIC (DH5α-E/pACSE2): 0.25 mg/L (≈ 0.427 µM); MIC (DH5α-E/pAAC(6′)-Iaa; DH5α-E/pAAC(6′)-Iaa): 8 mg/L (≈ 13.7 µM); resistance conferred by plasmid pAAC(6′)-Iaa (DH5α-E/pAAC(6′)-Iaa): not; Minimum Inhibitory Concentration, Clinical Resistance [11]: 32 µg/mL
CC(=O)OCC1=C(C(=O)O)N2C(=O)[C@@H](NC(=O)Cc3cccs3)[C@H]2SC1 [Cephalothin] | 1024 | 2048 | 4096 | 4096 | 2048 | 4096 | 1024 | 2048 | – | 4 | confer clinical resistance | 32 | clinical resistance conferred (E. coli K12 ampC): confers clinical resistance
CCN1CCN(C(=O)N[C@@H](C(=O)N[C@@H]2C(=O)N3[C@@H]2SC(C)(C)[C@@H]3C(=O)O)c2ccccc2)C(=O)C1=O [Pipericillin] | 256 | 128 | 128 | 256 | 512 | 512 | 512 | 512 | confer resistance | 2 | confer clinical resistance | 128 | –
Gentamycin | – | – | – | – | – | – | – | – | – | – | – | – | Minimum Inhibitory Concentration [10, 13]: 2 µg/mL; sensitivity of the strain to the drug [10]: sensitive; Minimum Inhibitory Concentration (DH5α-E/pACSE2): 0.25 µg/mL; Minimum Inhibitory Concentration (DH5α-E/pAAC(6′)-Iaa; DH5α-E/pAAC(6′)-Iaa): 0.5 µg/mL; resistance conferred by plasmid pAAC(6′)-Iaa (DH5α-E/pAAC(6′)-Iaa): not; Minimum Inhibitory Concentration, Clinical Resistance [11]: 8 µg/mL
NC[C@H]1O[C@H](O[C@H]2[C@H](O)[C@@H](O[C@H]3O[C@H](CO)[C@@H](O)[C@H](N)[C@H]3O)[C@H](N)C[C@@H]2N)[C@H](O)[C@@H](O)[C@@H]1O [Kanamycin] | – | – | – | – | – | – | – | – | – | – | – | – | MIC [10, 13]: 4 mg/L (≈ 8.26 µM); MIC (DH5α-E/pACSE2): 0.125 mg/L (≈ 0.258 µM); MIC (DH5α-E/pAAC(6′)-Iaa; DH5α-E/pAAC(6′)-Iaa): 32 mg/L (≈ 66 µM)
CC(C)(O/N=C(\C(=O)N[C@@H]1C(=O)N2C(C(=O)[O-])=C(C[n+]3ccccc3)CS[C@H]12)c1csc(N)n1)C(=O)O [Ceftazidime] | 128 | 256 | 256 | 256 | 256 | 256 | 512 | 8 | confer resistance | 0.25 | confer clinical resistance | 32 | resistance conferred ([8]; Cfre8454, without any additional mutations): does not confer clinical resistance
CO[C@@]1(NC(=O)C(C(=O)O)c2ccsc2)C(=O)N2[C@@H](C(=O)O)C(C)(C)S[C@@H]21 (some centres unmarked) [Temocillin] | 32 | 32 | 64 | 32 | 64 | 64 | 32 | 32 | confer resistance | 4 | confer clinical resistance | 32 | –
CO/N=C(\C(=O)N[C@@H]1C(=O)N2C(C(=O)O)=C(COC(N)=O)CS[C@H]12)c1ccco1 [Cefuroxime] | 256 | 1024 | 2048 | 256 | 1024 | 2048 | 512 | 512 | – | 8 | confer clinical resistance | 32 | clinical resistance conferred (E. coli K12 ampC): confers clinical resistance
NC[C@H]1O[C@H](O[C@H]2[C@H](O)[C@@H](O[C@H]3O[C@H](CO)[C@@H](O)[C@H](N)[C@H]3O)[C@H](N)C[C@@H]2N)[C@H](N)C[C@@H]1O [Tobramycin] | – | – | – | – | – | – | – | – | – | – | – | – | MIC [10, 13]: 4 mg/L (≈ 8.56 µM); sensitivity of the strain to the drug [10]: sensitive; MIC (DH5α-E/pACSE2): 0.25 mg/L (≈ 0.535 µM); MIC (DH5α-E/pAAC(6′)-Iaa; DH5α-E/pAAC(6′)-Iaa): 16 mg/L (≈ 34.2 µM); resistance conferred by plasmid pAAC(6′)-Iaa (DH5α-E/pAAC(6′)-Iaa): conferred resistance; Minimum Inhibitory Concentration, Clinical Resistance [11]: 8 µg/mL
CC1(C)S[C@@H]2[C@H](NC(=O)[C@H](N)c3ccccc3)C(=O)N2[C@H]1C(=O)O [Ampicillin] | 1024 | 1024 | 1024 | 2048 | 1024 | 1024 | 1024 | 2048 | – | 2 | confer clinical resistance | 32 | clinical resistance conferred (E. coli K12 ampC): confers clinical resistance
CO/N=C(\C(=O)N[C@@H]1C(=O)N2C(C(=O)O)=C(COC(C)=O)CS[C@H]12)c1csc(N)n1 [Cefotaxime] | 64 | 64 | 64 | 64 | 128 | 256 | 128 | 128 | – | – | confer clinical resistance | 64 | –

From patent publication US7125662B2, “Method of identifying putative antibiotic resistance genes” (priority 2000, dated 2006)
